# Data taken from BindingDB's records for doi:10.1186/1472-6769-1-3 (Kimmel Cancer Center, 2001).
# Target: Bis(5'-adenosyl)-triphosphatase (Homo sapiens, UniProt P49789)
# Test: Enzyme Inhibition Assay
# From the text: Inhibition assay using Fhit with ApppBODIPY.
# Sequence of Bis(5'-adenosyl)-triphosphatase (P49789 whole entry): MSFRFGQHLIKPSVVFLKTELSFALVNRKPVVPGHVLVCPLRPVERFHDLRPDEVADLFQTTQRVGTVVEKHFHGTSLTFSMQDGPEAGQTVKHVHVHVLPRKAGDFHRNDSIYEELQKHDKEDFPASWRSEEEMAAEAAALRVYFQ
row,SMILES,Ki
1,"Nc1ncnc2c1ncn2C1O[C@H](COP(=O)(O)OCC(COP(=O)(O)OCC2O[C@@H](n3cnc4c(N)ncnc43)[C@H](O)[C@@H]2O)OP(=O)(O)O)[C@@H](O)[C@H]1O (stereo partly specified) [AppppA analog, 17 (X=O)]",0.42 µM
2,"Nc1ncnc2c1ncn2C1OC(COP(=O)(S)OCC(COP(O)(=S)OCC2OC(n3cnc4c(N)ncnc43)C(O)C2O)OP(=O)(S)OCC2OC(n3cnc4c(N)ncnc43)C(O)C2O)C(O)C1O (stereo unspecified) [AppppA analog, 15 (X=S)]",0.078 µM
3,"Nc1ncnc2c1ncn2C1OC(COP(=O)(S)OCC(O)C(O)COP(O)(=S)OCC2OC(n3cnc4c(N)ncnc43)C(O)C2O)C(O)C1O (stereo unspecified) [AppppA analog, 4 (X=S)]",86 µM
4,"Nc1ncnc2c1ncn2C1O[C@H](COP(=O)(O)OCP(O)(O)=COP(=O)(O)OCC2O[C@@H](n3cnc4c(N)ncnc43)[C@H](O)[C@@H]2O)[C@@H](O)[C@H]1O (stereo partly specified) [AppppA analog, 5 (X=O)]",1.5 µM
5,"Nc1ncnc2c1ncn2C1OC(COP(=O)(O)OCC(COP(=O)(O)OCC2O[C@@H](n3cnc4c(N)ncnc43)[C@H](O)[C@@H]2O)(COP(=O)(O)OCC2O[C@@H](n3cnc4c(N)ncnc43)[C@H](O)[C@@H]2O)COP(=O)(O)OC[C@H]2OC(n3cnc4c(N)ncnc43)[C@H](O)[C@@H]2O)[C@H](O)[C@@H]1O (stereo partly specified) [AppppA analog, 13 (X=O)]",3.2 µM
6,"Nc1ncnc2c1ncn2C1O[C@H](COP(=O)(O)OCC(O)COP(=O)(O)OCC2O[C@@H](n3cnc4c(N)ncnc43)[C@H](O)C2O)[C@@H](O)[C@H]1O (stereo partly specified) [AppppA analog, 6 (X=O)]",4.7 µM
7,"Nc1ncnc2c1ncn2C1OC(COP(=O)(S)OCCCOP(O)(=S)OCC2OC(n3cnc4c(N)ncnc43)C(O)C2O)C(O)C1O (stereo unspecified) [AppppA analog, 9 (X=S)]",0.23 µM
8,"Nc1ncnc2c1ncn2C1OC(COP(=O)(S)OC(C(=O)O)C(OP(O)(=S)OCC2OC(n3cnc4c(N)ncnc43)C(O)C2O)C(=O)O)C(O)C1O (stereo unspecified) [AppppA analog, 3 (X=S)]",86 µM
9,"Nc1ncnc2c1ncn2C1OC(COP(=O)(S)SCCCSP(O)(=S)OCC2OC(n3cnc4c(N)ncnc43)C(O)C2O)C(O)C1O (stereo unspecified) [AppppA analog, 11 (X=S)]",5.2 µM
10,"Nc1ncnc2c1ncn2C1O[C@H](COP(=O)(O)OCC(COP(=O)(O)OCC2O[C@@H](n3cnc4c(N)ncnc43)[C@H](O)[C@@H]2O)OP(=O)(O)OC[C@H]2OC(n3cnc4c(N)ncnc43)[C@H](O)[C@@H]2O)[C@@H](O)[C@H]1O (stereo partly specified) [AppppA analog, 15 (X=O)]",1.5 µM
11,"CC(COP(=O)(S)OCC1OC(n2cnc3c(N)ncnc32)C(O)C1O)COP(O)(=S)OCC1OC(n2cnc3c(N)ncnc32)C(O)C1O (stereo unspecified) [AppppA analog, 7 (X=S)]",76 µM
12,"Nc1ncnc2c1ncn2C1OC(COP(=O)(O)OCC(COP(=O)(O)O)(COP(=O)(O)OCC2O[C@@H](n3cnc4c(N)ncnc43)[C@H](O)[C@@H]2O)COP(=O)(O)OC[C@H]2OC(n3cnc4c(N)ncnc43)[C@H](O)[C@@H]2O)[C@H](O)[C@@H]1O (stereo partly specified) [AppppA analog, 12 (X=O)]",1.5 µM
13,"Nc1ncnc2c1ncn2C1O[C@H](COP(=O)(S)NCCCNP(O)(=S)OCC2O[C@@H](n3cnc4c(N)ncnc43)[C@H](O)[C@@H]2O)[C@@H](O)[C@H]1O (stereo partly specified) [AppppA analog, 10 (X=S)]",3.3 µM
14,"Nc1ncnc2c1ncn2C1O[C@H](COP(=O)(O)OCC(COP(=O)(O)O)(COP(=O)(O)O)COP(=O)(O)OCC2O[C@@H](n3cnc4c(N)ncnc43)[C@H](O)[C@@H]2O)[C@@H](O)[C@H]1O (stereo partly specified) [AppppA analog, 14 (X=O)]",0.9 µM
15,"Nc1ncnc2c1ncn2C1O[C@H](COP(O)(=S)OC=P(O)(O)COP(=O)(S)OCC2O[C@@H](n3cnc4c(N)ncnc43)[C@H](O)[C@@H]2O)[C@@H](O)[C@H]1O (stereo partly specified) [AppppA analog, 5 (X=S)]",0.22 µM
16,"Nc1ncnc2c1ncn2C1OC(COP(=O)(S)OCC(COP(=O)(O)S)(COP(=O)(O)S)COP(O)(=S)OCC2OC(n3cnc4c(N)ncnc43)C(O)C2O)C(O)C1O (stereo unspecified) [AppppA analog, 14 (X=S)]",0.7 µM
17,"Nc1ncnc2c1ncn2C1OC(COP(=O)(S)OCCOP(O)(=S)OCC2OC(n3cnc4c(N)ncnc43)C(O)C2O)C(O)C1O (stereo unspecified) [AppppA analog, 2 (X=S)]",2.6 µM
18,"Nc1ncnc2c1ncn2C1OC(COP(=O)(S)OCC(N)COP(O)(=S)OCC2OC(n3cnc4c(N)ncnc43)C(O)C2O)C(O)C1O (stereo unspecified) [AppppA analog, 8 (X=S)]",3 µM
19,"Nc1ncnc2c1ncn2C1OC(COP(=O)(S)OCC(COP(O)(=S)OCC2OC(n3cnc4c(N)ncnc43)C(O)C2O)OP(=O)(O)S)C(O)C1O (stereo unspecified) [AppppA analog, 17 (X=S)]",0.11 µM
20,"Nc1ncnc2c1ncn2C1O[C@H](COP(=O)(S)NCC(CNP(O)(=S)OCC2O[C@@H](n3cnc4c(N)ncnc43)[C@H](O)[C@@H]2O)OP(=O)(S)OC[C@H]2OC(n3cnc4c(N)ncnc43)[C@H](O)[C@@H]2O)[C@@H](O)[C@H]1O (stereo partly specified) [AppppA analog, 16 (X=S)]",2.7 µM
21,"Nc1ncnc2c1ncn2C1OC(COP(=O)(S)OCC(COP(=O)(S)OCC2OC(n3cnc4c(N)ncnc43)C(O)C2O)(COP(=O)(S)OCC2OC(n3cnc4c(N)ncnc43)C(O)C2O)COP(O)(=S)OCC2OC(n3cnc4c(N)ncnc43)C(O)C2O)C(O)C1O (stereo unspecified) [AppppA analog, 13 (X=S)]",0.065 µM
